pIC50: −log10 of the molar value. Activity calls are given as the source filed them. No cut-off for these calls is given here.
Assays:
[1] = target: T1, Lysine-specific histone demethylase 1A (Homo sapiens, UniProt O60341); assay: Inhibition of recombinant human LSD1 using Histone H3 as fluorometric substrate incubated for 30 mins by HRP based plate reader assay
CWR22R [2] = assay: Growth inhibition of human 22Rv1 cells incubated for 6 to 7 days by MTS assay; assay type: functional; conditions: time 6-7 day
[3] = target: T2, Amine oxidase [flavin-containing] A (Homo sapiens, UniProt P21397); assay: Inhibition of MAO-A (unknown origin)
T2 sequence (P21397 whole entry): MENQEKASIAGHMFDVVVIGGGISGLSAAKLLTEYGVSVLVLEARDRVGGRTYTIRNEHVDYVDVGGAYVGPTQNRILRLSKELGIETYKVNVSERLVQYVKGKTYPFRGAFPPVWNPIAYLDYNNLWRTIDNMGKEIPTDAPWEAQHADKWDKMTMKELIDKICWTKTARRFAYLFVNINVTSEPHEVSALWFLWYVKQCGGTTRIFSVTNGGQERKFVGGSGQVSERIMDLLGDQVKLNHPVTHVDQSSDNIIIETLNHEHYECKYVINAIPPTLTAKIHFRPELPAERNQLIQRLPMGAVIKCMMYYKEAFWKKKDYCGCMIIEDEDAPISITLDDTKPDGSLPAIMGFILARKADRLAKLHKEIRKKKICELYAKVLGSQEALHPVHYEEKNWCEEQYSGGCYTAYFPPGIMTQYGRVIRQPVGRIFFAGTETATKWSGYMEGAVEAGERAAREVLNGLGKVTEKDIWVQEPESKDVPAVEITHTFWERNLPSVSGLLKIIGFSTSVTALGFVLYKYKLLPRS

[4] = target: T1, Lysine-specific histone demethylase 1A; assay: Inhibition of LSD1 in human LNCaP cells assessed as upregulation of H3K4me2 expression at 1 to 5 uM incubated for 5 days by Western blotting analysis; assay type: cell-based; conditions: dose 1-5 µM, time 5.0 day
[5] = target: T1, Lysine-specific histone demethylase 1A; assay: Inhibition of LSD1 in human PC-3 cells assessed as upregulation of H3K9me2 expression at 1 to 5 uM incubated for 5 days by Western blotting analysis; assay type: cell-based; conditions: dose 1-5 µM, time 5.0 day
CWR22R [6] = assay: Induction of apoptosis in human 22Rv1 cells at 10 uM incubated for 5 days by Annexin V-FITC/PI staining based flow cytometric analysis (reference value: 8.97 %); assay type: functional; conditions: time 5 day
CWR22R [7] = assay: Induction of cell cycle arrest in human 22Rv1 cells assessed as accumulation of cells at G0/G1 phase incubated for 72 hrs by propidium iodide/RNase staining based flow cytometric analysis; assay type: functional
LNCaP [8] = assay: Induction of cell cycle arrest in human LNCaP cells assessed as accumulation of cells at G0/G1 phase incubated for 72 hrs by propidium iodide/RNase staining based flow cytometric analysis; assay type: functional
CWR22R [9] = assay: Induction of apoptosis in human 22Rv1 cells assessed as upregulation of cleaved caspase-3 expression incubated for 48 hr by Western blotting analysis; assay type: functional, cell-based
CWR22R [10] = assay: Induction of apoptosis in human 22Rv1 cells assessed as upregulation of cleaved PARP expression incubated for 48 hr by Western blotting analysis; assay type: functional, cell-based
CWR22R [11] = assay: Antimigratory activity in human 22Rv1 cells assessed as downregulation of N-cadherin expression at 3 to 10 uM incubated for 48 hrs by Western blotting analysis; assay type: functional, cell-based; conditions: dose 3-10 µM
[12] = Metabolic stability in Sprague-Dawley rat hepatocyte assessed as compound remaining at 20 uM incubated for 30 mins by HPLC-MS/MS analysis; assay type: ADME, cell-based; conditions: hepatocytes, read-out: Stability
[13] = Metabolic stability in Sprague-Dawley rat hepatocyte assessed as compound remaining at 20 uM incubated for 180 mins by HPLC-MS/MS analysis; assay type: ADME, cell-based; conditions: hepatocytes, read-out: Stability
[14] = Metabolic stability in Sprague-Dawley rat hepatocyte assessed as half life at 20 uM incubated for 60 mins by HPLC-MS/MS analysis; assay type: ADME, cell-based; conditions: hepatocytes
[15] = Half life in BALB/c mouse at 50 mg/kg,iv measured upto 24 hrs by HPLC-MS/MS analysis; assay type: ADME, organism-based; conditions: in vivo
[16] = Tmax in BALB/c mouse at 50 mg/kg,ip measured upto 24 hrs by HPLC-MS/MS analysis; assay type: ADME, organism-based; conditions: in vivo
[17] = Tmax in BALB/c mouse at 50 mg/kg,po measured upto 24 hrs by HPLC-MS/MS analysis; assay type: ADME, organism-based; conditions: in vivo
[18] = Cmax in BALB/c mouse at 50 mg/kg,po measured upto 24 hrs by HPLC-MS/MS analysis; assay type: ADME, organism-based; conditions: in vivo
[19] = Oral bioavailability in BALB/c mouse at 50 mg/kg measured upto 24 hrs by HPLC-MS/MS analysis; assay type: ADME, organism-based; conditions: in vivo
[20] = Toxicity in BALB/c mouse xenografted with human 22Rv1 cells assessed as heart morphological change at 80 mg/kg,ip administrated daily for 31 days; assay type: organism-based, CWR22R; conditions: in vivo, 744 h, time 31 day
[21] = Toxicity in BALB/c mouse xenografted with human 22Rv1 cells assessed as lung morphological change at 80 mg/kg,ip administrated daily for 31 days; assay type: organism-based, CWR22R; conditions: in vivo, 744 h, time 31 day
[22] = Toxicity in BALB/c mouse xenografted with human 22Rv1 cells assessed as kidney morphological change at 80 mg/kg,ip administrated daily for 31 days; assay type: organism-based, CWR22R; conditions: in vivo, 744 h, time 31 day
[23] = target: T1, Lysine-specific histone demethylase 1A; assay: Inhibition of LSD1 in human 22Rv1 cells assessed as downregulation of AR expression incubated for 48 hrs by Western blotting analysis; assay type: cell-based
CWR22R [24] = assay: Synergistic antiproliferative activity against human 22Rv1 cells assessed as inhibition of cell growth at 6.25 to 100 uM incubated for 6 to 7 days in presence of enzalutamide by MTS assay; assay type: functional, cell-based; conditions: dose 6.25-100 µM, time 6-7 day
LNCaP [25] = assay: Synergistic antiproliferative activity against human LNCaP cells assessed as inhibition of cell growth at 6.25 to 100 uM incubated for 6 to 7 days in presence of enzalutamide by MTS assay; assay type: functional, cell-based; conditions: dose 6.25-100 µM, time 6-7 day
MV4-11 = assay: Antiproliferative activity against human MV4-11 cells assessed as inhibition of cell growth incubated for 6 to 7 days by MTS assay; assay type: functional, cell-based; conditions: time 6-7 day
U-937 = assay: Antiproliferative activity against human U-937 cells assessed as inhibition of cell growth incubated for 6 to 7 days by MTS assay; assay type: functional, cell-based; conditions: time 6-7 day
SU-DHL-2 = assay: Antiproliferative activity against human SU-DHL-2 cells assessed as inhibition of cell growth incubated for 6 to 7 days by MTS assay; assay type: functional, cell-based; conditions: time 6-7 day
SUD4 = assay: Antiproliferative activity against human SU-DHL-4 cells assessed as inhibition of cell growth incubated for 6 to 7 days by MTS assay; assay type: functional, cell-based; conditions: time 6-7 day
MDA-MB-231 = assay: Antiproliferative activity against human MDA-MB-231 cells assessed as inhibition of cell growth incubated for 6 to 7 days by MTS assay; assay type: functional, cell-based; conditions: time 6-7 day
PC-3 = assay: Antiproliferative activity against human PC-3 cells assessed as inhibition of cell growth incubated for 6 to 7 days by MTS assay; assay type: functional, cell-based; conditions: time 6-7 day
LNCaP [26] = assay: Antiproliferative activity against human LNCaP cells assessed as inhibition of cell growth incubated for 6 to 7 days by MTS assay; assay type: functional, cell-based; conditions: time 6-7 day
BEAS-2B = assay: Cytotoxicity against human BEAS-2B cells incubated for 6 to 7 days by MTS assay; assay type: toxicity, cell-based; conditions: time 6-7 day
CWR22R [27] = conditions: Homo sapiens, dose 80.0 mg/kg, route ip, time 31.0 day

## CCN(c1cc(-c2ccc([C@@H]3C[C@H]3N(CC3CCOCC3)C(=O)OC(C)(C)C)cc2)cc(C(=O)NCc2c(C)cc(C)[nH]c2=O)c1C)C1CCOCC1 (racemic)
[1]
  pIC50: < 5.52
CWR22R [2]
  GI50: 3.96 µM
[3]
  pIC50: 5.81
[4]
  inhibition: Active
[5]
  inhibition: Active
CWR22R [6]
  Activity: 50.06%
CWR22R [7]
  Activity: Dose-Dependent Effect
LNCaP [8]
  Activity: Dose-Dependent Effect
CWR22R [9]
  Activity: Dose-Dependent Effect
CWR22R [10]
  Activity: Dose-Dependent Effect
CWR22R [11]
  Activity: Active
[12]
  remaining at 0.5 h, 20 µM: 93%
[13]
  remaining at 3 h, 20 µM: 70%
[14]
  half-life at 20 µM: 5.5 h
[15]
  half-life: 2.5 h
[16]
  Tmax: 2 h
[17]
  Tmax: 1 h
[18]
  Cmax: 7410 ng/mL
[19]
  bioavailability: 32.9%
[20]
  Activity: Non-Toxic
[21]
  Activity: Non-Toxic
[22]
  Activity: Non-Toxic
[23]
  inhibition: Dose-Dependent Effect
CWR22R [24]
  Activity: Active
LNCaP [25]
  Activity: Active
MV4-11
  Activity: Active
U-937
  Activity: Active
SU-DHL-2
  Activity: Active
SUD4
  Activity: Active
MDA-MB-231
  Activity: Active
PC-3
  Activity: Active
LNCaP [26]
  Activity: Active
BEAS-2B
  Activity: Non-Toxic
CWR22R [27]
  inhibition: Active
